In series [1] the target is Proteinase-activated receptor 2 (Homo sapiens) (UniProt P55085). Put plainly: Inhibition of PAR2-mediated TNFalpha and SLIGKV-NH2-induced interleukin-8 production in normal human epidermal keratinocytes at 10 uM by ELISA.
The nature of series [2]: Cytotoxicity against normal human epidermal keratinocytes at 10 uM after 72 hrs by MTT assay. The series is classed as cell-based. Particulars: keratinocyte. (In general: Formazan colour is commonly taken as a measure of viable cells.)
The target of series [3] is Proteinase-activated receptor 2 (Homo sapiens) (UniProt P55085). The series is described as follows: Inhibition of PAR2-mediated SLIGKV-NH2-induced interleukin-8 production in normal human epidermal keratinocytes at 10 uM after 24 hrs by ELISA.
Series [4] shares this target. The series is described as follows: Inhibition of PAR2-mediated IL1-beta and SLIGKV-NH2-induced interleukin-8 production in normal human epidermal keratinocytes at 10 uM by ELISA. In general terms: ELISA stands for enzyme-linked immunosorbent assay.
A short description of series [5]: Cytotoxicity against normal human epidermal keratinocytes at 5 uM after 72 hrs by MTT assay. The series is classed as cell-based. Particulars: keratinocyte.
A short description of series [6]: Cytotoxicity against normal human epidermal keratinocytes at 100 uM after 72 hrs by MTT assay. It is filed as cell-based. To be noted: keratinocyte.
For series [7], the target named is Proteinase-activated receptor 2 (Homo sapiens) (UniProt P55085). Put plainly: Inhibition of PAR2 gene expression in normal human epidermal keratinocytes at 10 uM after 48 hrs by quantitative RT-PCR.
The target is the same in series [8]. The series is described as follows: Inhibition of PAR2-mediated SLIGKV-NH2-induced interleukin-8 production in normal human epidermal keratinocytes at 5 uM after 24 hrs by ELISA.

The source made the active and inactive calls. No cut-off for these calls is given here.

Proteinase-activated receptor 2 (Homo sapiens), sequence (P55085 whole entry): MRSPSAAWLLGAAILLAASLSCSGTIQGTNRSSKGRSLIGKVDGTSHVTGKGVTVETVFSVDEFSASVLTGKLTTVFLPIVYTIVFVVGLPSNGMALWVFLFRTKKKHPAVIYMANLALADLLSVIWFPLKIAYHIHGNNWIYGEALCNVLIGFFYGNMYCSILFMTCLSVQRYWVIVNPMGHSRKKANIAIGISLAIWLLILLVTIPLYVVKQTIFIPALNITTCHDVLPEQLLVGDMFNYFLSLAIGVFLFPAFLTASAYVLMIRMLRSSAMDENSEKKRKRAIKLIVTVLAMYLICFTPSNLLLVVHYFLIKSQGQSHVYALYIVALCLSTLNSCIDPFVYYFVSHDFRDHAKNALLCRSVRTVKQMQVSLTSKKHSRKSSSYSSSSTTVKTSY

`CC[C@H]1OC(=O)[C@H](C)[C@@H](O[C@H]2C[C@@](C)(OC)[C@@H](O)[C@H](C)O2)[C@H](C)[C@@H](O[C@@H]2O[C@H](C)C[C@H](N(C)C)[C@H]2O)[C@](C)(O)C[C@@H](C)/C(=N\OCOCCOC)[C@H](C)[C@@H](O)[C@]1(C)O`: the outcome in series [1] was inactive.

Consider `CC[C@H]1OC(=O)[C@H](C)[C@@H](O[C@H]2C[C@@](C)(OC)[C@@H](O)[C@H](C)O2)[C@H](C)[C@@H](O[C@@H]2O[C@H](C)C[C@H](N(C)C)[C@H]2O)[C@](C)(OC)C[C@@H](C)C(=O)[C@H](C)[C@@H](O)[C@]1(C)O`, for which, in series [1], the outcome was inactive.

For the molecule `C[C@H]1c2cccc(O)c2C(=O)C2=C(O)[C@]3(O)C(=O)C(C(N)=O)=C(O)[C@@H](N(C)C)[C@@H]3[C@@H](O)[C@@H]21.O` [DOXYCYCLINE], the Activity entry was “Non-toxic” in series [2], “Non-toxic” in series [5] and “Toxic” in series [6]. Also, the result in series [3], in series [4], in series [8] and in series [1] was Active. In addition, the outcome in series [7] was inactive.

For `CN(C)c1ccc(O)c2c1C[C@H]1C[C@H]3[C@H](N(C)C)C(O)=C(C(N)=O)C(=O)[C@@]3(O)C(O)=C1C2=O` [MINOCYCLINE], the results for the Activity entry in series [2], in series [5] and in series [6] were “Non-toxic”, “Non-toxic” and “Toxic”, respectively. In addition, the result in series [3], in series [4], in series [8] and in series [1] was Active. Besides, the result in series [7] was inactive.

On to `CN(C)[C@@H]1C(O)=C(C(N)=O)C(=O)[C@@]2(O)C(O)=C3C(=O)c4c(O)cccc4[C@@](C)(O)[C@H]3C[C@@H]12` [TETRACYCLINE], for which the Activity entry in series [2] is “Non-toxic”; in series [5], “Non-toxic”; in series [6], “Toxic”. In addition, the result in series [3], in series [8] and in series [1] was Active. The result in series [4] and in series [7] was inactive.

(Values after ChEMBL document CHEMBL1649195, “Tetracyclines modulate protease-activated receptor 2-mediated proinflammatory reactions in epidermal keratinocytes” (Antimicrob Agents Chemother, 2009).)
